The record followed here is US10758534B2 (Vertex Pharmaceuticals Incorporated, priority 2014, dated 2020).

In this assay the target is T1, F508del (Homo sapiens, UniProt P13569, DEL508-508).
T1 construct: expressed in transfected cells
T1 sequence (P13569 with tags, fused parts or gaps DEL508-508): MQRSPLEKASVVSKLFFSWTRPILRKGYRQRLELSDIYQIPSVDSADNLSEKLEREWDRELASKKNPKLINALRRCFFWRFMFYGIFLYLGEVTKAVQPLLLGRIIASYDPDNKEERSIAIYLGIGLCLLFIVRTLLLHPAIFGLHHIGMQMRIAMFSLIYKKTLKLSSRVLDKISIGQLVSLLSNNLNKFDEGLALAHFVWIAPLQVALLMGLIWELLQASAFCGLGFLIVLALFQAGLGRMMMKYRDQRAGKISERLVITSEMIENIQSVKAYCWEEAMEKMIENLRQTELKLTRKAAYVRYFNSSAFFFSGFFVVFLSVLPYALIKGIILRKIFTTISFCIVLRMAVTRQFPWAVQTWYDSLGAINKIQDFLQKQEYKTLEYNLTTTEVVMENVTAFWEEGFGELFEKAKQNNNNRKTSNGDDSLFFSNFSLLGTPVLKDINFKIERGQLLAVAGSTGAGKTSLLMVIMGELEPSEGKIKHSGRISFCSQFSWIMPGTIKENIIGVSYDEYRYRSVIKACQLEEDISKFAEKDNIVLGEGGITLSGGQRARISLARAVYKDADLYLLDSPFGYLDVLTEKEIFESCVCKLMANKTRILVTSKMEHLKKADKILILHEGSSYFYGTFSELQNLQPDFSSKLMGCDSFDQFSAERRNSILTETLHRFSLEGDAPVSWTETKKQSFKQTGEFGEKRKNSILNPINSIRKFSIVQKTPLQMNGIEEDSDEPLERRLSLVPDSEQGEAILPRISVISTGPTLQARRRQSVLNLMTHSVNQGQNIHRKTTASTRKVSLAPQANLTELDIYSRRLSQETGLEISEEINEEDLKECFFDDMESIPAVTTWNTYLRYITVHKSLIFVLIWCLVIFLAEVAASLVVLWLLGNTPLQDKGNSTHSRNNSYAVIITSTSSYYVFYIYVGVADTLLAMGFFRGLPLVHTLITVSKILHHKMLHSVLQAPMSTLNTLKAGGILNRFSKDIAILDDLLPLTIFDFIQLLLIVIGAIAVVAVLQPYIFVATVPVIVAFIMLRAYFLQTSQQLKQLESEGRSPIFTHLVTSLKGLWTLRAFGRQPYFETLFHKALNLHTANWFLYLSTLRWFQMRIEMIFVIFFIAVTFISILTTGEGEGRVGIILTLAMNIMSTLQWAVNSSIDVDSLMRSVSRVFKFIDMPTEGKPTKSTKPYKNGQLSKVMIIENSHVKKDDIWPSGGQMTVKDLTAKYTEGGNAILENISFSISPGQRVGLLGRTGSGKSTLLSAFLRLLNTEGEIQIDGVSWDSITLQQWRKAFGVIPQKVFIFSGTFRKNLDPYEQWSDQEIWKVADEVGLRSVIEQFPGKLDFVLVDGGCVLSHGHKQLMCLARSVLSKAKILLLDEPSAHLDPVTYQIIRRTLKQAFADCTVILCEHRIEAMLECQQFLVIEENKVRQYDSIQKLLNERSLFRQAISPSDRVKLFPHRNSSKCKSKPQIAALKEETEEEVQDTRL
Put plainly: Protocol 1: membrane potential optical assay (FLIPR III, voltage sensing dye), identification of potentiator compounds. In kind it is cell-based. To be noted: Table 3, compounds of Table 1. An outline of the steps: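 NIH 3T3 fibroblasts stably expressing F508del were cultured at 27° C for 24 hrs for temperature correction, then treated with compounds or DMSO and loaded with a voltage-sensing redistribution dye. Forskolin added with a Cl⁻ gradient activated the channel; membrane-potential fluorescence on FLIPR III reported increased gating.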
Turning to `CC(C)COc1cc(F)cc(-c2ccc(C(=O)NS(=O)(=O)c3cccc(N)n3)c(N3CCCC3C(C)C)n2)c1` (centres unmarked) [Compound 1258, N-[(6-amino-2-pyridyl)sulfonyl]-6-(3-fluoro-5-isobutoxy-phenyl)-2-(2-isopropylpyrrolidin-1-yl)pyridine-3-carboxamide], the EC30 result is reported as “+++ (“+++” means <3 uM)”.
`Cc1cccc(C)c1Cn1nc(-c2coc3ccccc3c2=O)cc1C(=O)NS(=O)(=O)c1ccccc1` [Compound 1501, N-(benzenesulfonyl)-2-[(2,6-dimethylphenyl)methyl]-5-(4-oxochromen-3-yl)pyrazole-3-carboxamide]: the EC30 result is given as “+++ (“+++” means <3 uM)”.
`C[C@@H]1CN(c2nc(C3=CCCCO3)ccc2C(=O)NS(=O)(=O)c2cccc(N)n2)C(C)(C)C1` [Compound 1438, N-[(6-amino-2-pyridyl)sulfonyl]-6-(3,4-dihydro-2H-pyran-6-yl)-2-[(4S)-2,2,4-trimethylpyrrolidin-1-yl]pyridine-3-carboxamide]: the EC30 entry is listed as “+++ (“+++” means <3 uM)”.
Take `CCOc1ccc(-c2ccc(C(=O)NS(=O)(=O)c3cccnc3N)c(N3C[C@@H](C)CC3(C)C)n2)cc1` [Compound 1945, N-[(2-amino-3-pyridyl)sulfonyl]-6-(4-ethoxyphenyl)-2-[(4S)-2,2,4-trimethylpyrrolidin-1-yl]pyridine-3-carboxamide]: the EC30 entry is listed as “+++ (“+++” means <3 uM)”.
For the compound `COc1ccccc1-c1cnc(N2CC(C)CC2(C)C)c(C(=O)NS(=O)(=O)c2cccc(N)n2)c1` (centres unmarked) [Compound 1735, N-[(6-amino-2-pyridyl)sulfonyl]-5-(2-methoxyphenyl)-2-(2,2,4-trimethylpyrrolidin-1-yl)pyridine-3-carboxamide], the EC30 result is on record as “+++ (“+++” means <3 uM)”.
Consider `CCC1CCCN1c1nc(-c2cc(F)cc(OCC(C)C)c2)ccc1C(=O)NS(=O)(=O)c1cccc(N)n1` (centres unmarked) [Compound 1218, N-[(6-amino-2-pyridyl)sulfonyl]-2-(2-ethylpyrrolidin-1-yl)-6-(3-fluoro-5-isobutoxy-phenyl)pyridine-3-carboxamide], for which the EC30 entry is recorded as “+++ (“+++” means <3 uM)”.
`Cc1cc(C)c(Oc2nc(-c3ccc(OCc4ccccc4)cc3F)ccc2C(=O)NS(=O)(=O)c2cccc(N)n2)c(C)c1` [Compound 1113, N-[(6-amino-2-pyridyl)sulfonyl]-6-(4-benzyloxy-2-fluoro-phenyl)-2-(2,4,6-trimethylphenoxy)pyridine-3-carboxamide]: the EC30 result was “+++ (“+++” means <3 uM)”.
On to `CC(Nc1ncccc1C(=O)NS(=O)(=O)c1cccc(N)n1)c1cccc2ccccc12` (centres unmarked) [Compound 1769, N-[(6-amino-2-pyridyl)sulfonyl]-2-[1-(1-naphthyl)ethylamino]pyridine-3-carboxamide], for which the EC30 result was “++ (“++” means between 3 uM and 10 uM)”.
The entry for `CC(C)COc1cc(F)cc(-c2ccc(C(=O)NS(=O)(=O)c3cccc(N)n3)c(N3CCC4(CCC4)CC3)n2)c1` [Compound 1303, N-[(6-amino-2-pyridyl)sulfonyl]-2-(7-azaspiro[3.5]nonan-7-yl)-6-(3-fluoro-5-isobutoxy-phenyl)pyridine-3-carboxamide] is “+++ (“+++” means <3 uM)”; for `CC1CN(c2ncccc2C(=O)NS(=O)(=O)c2cccc(OC(C)c3ccccc3)n2)C(C)(C)C1` (centres unmarked) [Compound 1917, N—[[6-(1-phenylethoxy)-2-pyridyl]sulfonyl]-2-(2,2,4-trimethylpyrrolidin-1-yl)pyridine-3-carboxamide] it is “+++ (“+++” means <3 uM)”.
Take `Cc1cc(C)c(Oc2nc(C3=CC(=O)CC(C)(C)C3)ccc2C(=O)NS(=O)(=O)c2cccc(N)n2)c(C)c1` [Compound 1528, N-[(6-amino-2-pyridyl)sulfonyl]-6-(5,5-dimethyl-3-oxo-cyclohexen-1-yl)-2-(2,4,6-trimethylphenoxy)pyridine-3-carboxamide]: the EC30 entry was “++ (“++” means between 3 uM and 10 uM)”.
For the compound `Cc1cc(C)c(Oc2nc(N3CCCC3C)ccc2C(=O)NS(=O)(=O)c2cccc(N)n2)c(C)c1` (centres unmarked) [Compound 1553, N-[(6-amino-2-pyridyl)sulfonyl]-6-(2-methylpyrrolidin-1-yl)-2-(2,4,6-trimethylphenoxy)pyridine-3-carboxamide], the EC30 entry is recorded as “+++ (“+++” means <3 uM)”.
On to `CC(C)COc1cc(F)cc(-c2ccc(C(=O)NS(=O)(=O)N3CCCC(C)(N)C3)c(N3CC(C)CC3(C)C)n2)c1` (centres unmarked) [Compound 1445, N-[(3-amino-3-methyl-1-piperidyl)sulfonyl]-6-(3-fluoro-5-isobutoxy-phenyl)-2-(2,2,4-trimethylpyrrolidin-1-yl)pyridine-3-carboxamide], for which the EC30 result is given as “+++ (“+++” means <3 uM)”.
Regarding `C[C@@H]1CN(c2nc(-c3ccccc3)ccc2C(=O)NS(=O)(=O)c2cccnc2N)C(C)(C)C1` [Compound 1958, N-[(2-amino-3-pyridyl)sulfonyl]-6-phenyl-2-[(4S)-2,2,4-trimethylpyrrolidin-1-yl]pyridine-3-carboxamide], the EC30 result is reported as “+++ (“+++” means <3 uM)”.
With `CC(C)COc1cc(F)cc(-c2ccc(C(=O)NS(=O)(=O)c3cccc(N)n3)c(OC3CC3)n2)c1` [Compound 1446, N-[(6-amino-2-pyridyl)sulfonyl]-2-(cyclopropoxy)-6-(3-fluoro-5-isobutoxy-phenyl)pyridine-3-carboxamide], the EC30 entry was “+++ (“+++” means <3 uM)”.
The entry for `CC(C)COc1cc(F)cc(-c2ccc(C(=O)NS(=O)(=O)c3cccc(N)n3)c(OCC3CCOCC3)n2)c1` [Compound 933, N-[(6-amino-2-pyridyl)sulfonyl]-6-(3-fluoro-5-isobutoxy-phenyl)-2-(tetrahydropyran-4-ylmethoxy)pyridine-3-carboxamide] is “+++ (“+++” means <3 uM)”; for `COc1ccccc1S(=O)(=O)NC(=O)c1ccc(C(C)(C)C)nc1-c1ccc(C)cc1` [Compound 1124, 6-tert-butyl-N-(2-methoxyphenyl)sulfonyl-2-(p-tolyl)pyridine-3-carboxamide] it is “+++ (“+++” means <3 uM)”.
The entry for `CC1CN(c2ncccc2C(=O)NS(=O)(=O)c2cccc(Oc3ccc4cccnc4c3)n2)C(C)(C)C1` (centres unmarked) [Compound 1875, N—[[6-(7-quinolyloxy)-2-pyridyl]sulfonyl]-2-(2,2,4-trimethylpyrrolidin-1-yl)pyridine-3-carboxamide] is “++ (“++” means between 3 uM and 10 uM)”.
Consider `Cc1ccc(-c2nc(-c3cc(F)cc(OC(C)C)c3)ccc2C(=O)NS(=O)(=O)c2ccn[nH]2)cc1` [Compound 849, 6-(3-fluoro-5-isopropoxy-phenyl)-2-(p-tolyl)-N-(1H-pyrazol-5-ylsulfonyl)pyridine-3-carboxamide], for which the EC30 entry is “+ (“+” means greater than 10 uM)”.
For `CC(C)COc1cc(F)cc(-c2ccc(C(=O)NS(=O)(=O)c3ccc(O)cc3)c(N3C[C@@H](C)CC3(C)C)n2)c1` [Compound 1750, 6-(3-fluoro-5-isobutoxy-phenyl)-N-(4-hydroxyphenyl)sulfonyl-2-[(4S)-2,2,4-trimethylpyrrolidin-1-yl]pyridine-3-carboxamide] the value was “+++ (“+++” means <3 uM)”; for `CC(C)Oc1ccc(-c2ccc(C(=O)NS(=O)(=O)c3cccc(N)n3)c(N3CCCCCC3)n2)cn1` [Compound 940, N-[(6-amino-2-pyridyl)sulfonyl]-2-(azepan-1-yl)-6-(6-isopropoxy-3-pyridyl)pyridine-3-carboxamide], “+++ (“+++” means <3 uM)”; for `C[C@@H]1CN(c2nc(C(C)(C)C)c(C(O)C(O)C(C)(C)C)cc2C(=O)NS(=O)(=O)c2cccc(N)n2)C(C)(C)C1` (some centres unmarked) [Compound 1883], “+++ (“+++” means <3 uM)”.
Regarding `C=Cc1cc(C(=O)NS(=O)(=O)c2cccc(N)n2)c(N2C[C@@H](C)CC2(C)C)nc1C(C)(C)C` [Compound 1373, N-[(6-amino-2-pyridyl)sulfonyl]-6-tert-butyl-2-[(4S)-2,2,4-trimethylpyrrolidin-1-yl]-5-vinyl-pyridine-3-carboxamide], the EC30 result is “+++ (“+++” means <3 uM)”.
Consider `CC(CO)Oc1ccc(-c2ccc(C(=O)NS(=O)(=O)c3cccc(N)n3)c(N3[C@H](C)CC[C@@H]3C)n2)cn1` (stereo partly drawn) [Compound 998, N-[(6-amino-2-pyridyl)sulfonyl]-2-[(2S,5R)-2,5-dimethylpyrrolidin-1-yl]-6-[6-(2-hydroxy-1-methyl-ethoxy)-3-pyridyl]pyridine-3-carboxamide], for which the EC30 entry is “++ (“++” means between 3 uM and 10 uM)”.
The entry for `Cc1cc2c(cc1-c1cnc(N3CC(C)CC3(C)C)c(C(=O)NS(=O)(=O)c3cccc(N)n3)c1)C(C)(C)CCC2(C)C` (centres unmarked) [Compound 1759, N-[(6-amino-2-pyridyl)sulfonyl]-5-(1,1,4,4,7-pentamethyltetralin-6-yl)-2-(2,2,4-trimethylpyrrolidin-1-yl)pyridine-3-carboxamide] is “+++ (“+++” means <3 uM)”; for `CCOc1cccc2c1CN(Cc1c(C)cc(C)cc1C)C2(C)C(=O)NS(=O)(=O)c1ccc2cc[nH]c2c1` (centres unmarked) [Compound 1393, 4-ethoxy-N-(1H-indol-6-ylsulfonyl)-1-methyl-2-[(2,4,6-trimethylphenyl)methyl]isoindoline-1-carboxamide] it is “+++ (“+++” means <3 uM)”; for `Cc1cc(C)c(CN2Cc3ccccc3C2(C)C(=O)NS(=O)(=O)c2ccccc2)c(C)c1` (centres unmarked) [Compound 873, N-(benzenesulfonyl)-1-methyl-2-[(2,4,6-trimethylphenyl)methyl]isoindoline-1-carboxamide] it is “+++ (“+++” means <3 uM)”.
For `CCOc1ncc(-c2ccc(C(=O)NS(=O)(=O)c3cccc(N)n3)c(Oc3c(C)cc(C)cc3C)n2)cn1` [Compound 1130, N-[(6-amino-2-pyridyl)sulfonyl]-6-(2-ethoxypyrimidin-5-yl)-2-(2,4,6-trimethylphenoxy)pyridine-3-carboxamide], the EC30 result is “++ (“++” means between 3 uM and 10 uM)”.
`CC1CN(c2nc(-c3ccc(OC(C)C)nc3)ccc2C(=O)NS(=O)(=O)c2ccn[nH]2)C(C)(C)C1` (centres unmarked) [Compound 1352, 6-(6-isopropoxy-3-pyridyl)-N-(1H-pyrazol-5-ylsulfonyl)-2-(2,2,4-trimethylpyrrolidin-1-yl)pyridine-3-carboxamide]: the EC30 entry is “+++ (“+++” means <3 uM)”.
